Common to all, as to assay type: cell-based
The subject of experiment [1] is PD1-ss+10aa/Gaussia Luciferase. The experiment in a line: Dox-Induced PD1-ss-Gluc Assay. The note with it: 293FRT/TO cells, read-out: 24 hr Dox Inducible PD1ssGluc 293FRT/TO: Mean IC50. In short, it runs like this: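 Compounds, diluted in DMSO/media with doxycycline, were added to cells plated a day earlier and kept at 37° C under 5% CO2. The cells stably express a Gaussia luciferase construct fused to PD1-ss+10aa, induced via the T-REx system. Unassigned stereochemistry means mixture data.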

For experiment [2], the system named is TNFα-FL/Gaussia Luciferase. In words: Dox Induced TNFα-FL-Gluc Assay. Particulars: 293FRT/TO cells, read-out: 24 hr Dox Inducible TNFaFLGluc 293FRT/TO: Mean IC50. In short, it runs like this:
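Compounds were added in doxycycline-containing DMSO/media to cells plated the previous day and incubated at 37° C under 5% CO2. These cells stably express a TNFα-FL/Gaussia luciferase cDNA whose expression is under T-REx (Dox-inducible) control, selected with Hygromycin and Blasticidin.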

Experiment [3] relates to HER3-ss+4aa/Gaussia Luciferase. In words: Dox-Induced Her3-ss-Gluc Assay. The note with it: 293FRT/TO cells, read-out: 24 hr Dox Inducible Her3(ss + 4)Gluc 293FRT/TO: Mean IC50. The procedure, abridged:
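Compounds, diluted in DMSO/media containing doxycycline, were incubated at 37° C., 5% CO2 with cells seeded one day earlier. The cells stably express HER3-ss+4aa/Gaussia luciferase under T-REx control. Where no stereochemistry is shown, data refer to the mixture of stereoisomers.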

Experiment [4] concerns IL-2-FL/Gaussia Luciferase. The experiment in a line: Dox Induced IL2-FL-Gluc Assay. The note with it: 293FRT/TO cells, read-out: 24 hr Dox Inducible IL2FLGIuc 293FRT/TO: Mean IC50. The procedure, abridged:
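Compounds were added together with doxycycline in DMSO/media and incubated at 37° C., 5% CO2. The cells were a stably selected line carrying IL-2-FL/Gaussia luciferase under T-REx inducible control. Structures drawn without stereochemistry were tested as stereoisomer mixtures.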

The subject of experiment [5] is human multiple myeloma cell line NCI-H929. In words: H929 Cell Viability Assay. The note with it: 48 hr, NCI-H929 cells, Celltiter-Glo, read-out: 48 hr H929 Viability Celltiter-Glo: Mean EC50. The procedure: Plates were incubated at 37° C., 5% CO2 for 48 hours. After 48 hours, Celltiter-Glo® (Promega) was added to each well and luciferase signal was quantified using Tecan Infinite M1000 Pro for cell viability determination.
For chemical structures that include one or more stereoisomers, but are illustrated without indicating stereochemistry, the assay data refers to a mixture of stereoisomers.

In experiment [6] the test system is human multiple myeloma cell line U266B1. The experiment in a line: U266 Cell Viability Assay. The note with it: U-266, 48 hr, U266B1 cells, Celltiter-Glo, read-out: 48 hr U266 Viability Celltiter-Glo: Mean EC50. In short, it runs like this:
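Viability measured by CellTiter-Glo luciferase signal after 48 h compound exposure (37 °C, 5% CO2) of U266B1 cells in 384-well format. Where stereochemistry is not shown, data refer to the stereoisomer mixture.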

[7] abbreviates: 24 hr doxycycline induction, Gaussia luciferase signal.

As usually defined, the EC50 is the concentration needed to bring the measured effect to its halfway point.

Read-outs that look alike come from different tables or passages of the source. Where only a bound is given, the exact number is not on record here.

Turning to `CC(=O)N1CCC(Cn2cccc2C(=O)Nc2nc(C(C)(C)OC(C)C)cs2)CC1` [Compound A128, 1-((1-acetylpiperidin-4-yl)methyl)-N-(4-(2-isopropoxypropan-2-yl)thiazol-2-yl)-1H-pyrrole-2-carboxamide], the IC50 in experiment [1] (setting [7]), in experiment [2] (setting [7]), in experiment [3] (setting [7]) and in experiment [4] (setting [7]) was greater than 25 µM in each case. For the same molecule, the EC50 in experiment [5] and in experiment [6] was greater than 25 µM each time.
On to `O=C(Nc1nc([C@H]2CCC[C@@H](c3ccccc3)C2)cs1)c1cccn1Cc1ccncc1` [Compound A270], for which the IC50 in experiment [1] (setting [7]) was 0.161 µM; in experiment [2] (setting [7]) it was 1.74 µM; in experiment [3] (setting [7]) it was 0.463 µM; in experiment [4] (setting [7]), 0.599 µM. Also, the EC50 is 10.4 µM in experiment [5] and greater than 25 µM in experiment [6].
`Cc1cc(C(=O)Nc2nc(C(C)(C)OC(C)C)cs2)n(Cc2ccncc2)n1` [Compound A103]: the IC50 in experiment [1] (setting [7]), in experiment [2] (setting [7]), in experiment [3] (setting [7]) and in experiment [4] (setting [7]) was greater than 25 µM each time. In addition, the EC50 in experiment [5] and in experiment [6] was greater than 25 µM in each case.
Consider `O=C(Nc1nc(-c2ccccc2)cs1)c1cccn1Cc1ccncc1` [Compound A216, N-(4-phenylthiazol-2-yl)-1-(pyridin-4-ylmethyl)-1H-pyrrole-2-carboxamide], for which the IC50 in experiment [1] (setting [7]) turned out to be 0.318 µM; in experiment [2] (setting [7]), 18.8 µM; in experiment [3] (setting [7]), 1.91 µM; in experiment [4] (setting [7]), 1.56 µM. The EC50 in experiment [5] and in experiment [6] was greater than 25 µM in each case.
As for `CO[C@@H]1C[C@H](c2csc(NC(=O)c3cccn3Cc3ccncc3)n2)N(c2ccccc2)C1` [Compound A325], the IC50 in experiment [1] (24 hr, doxycycline-induced) came out at 0.026 µM; in experiment [2] (24 hr, doxycycline-induced), 0.206 µM; in experiment [3] (24 hr, doxycycline-induced), 0.046 µM; in experiment [4] (24 hr, doxycycline-induced) it was 0.058 µM. For the same molecule, the EC50 in experiment [5] is 3.62 µM; in experiment [6], greater than 25 µM.
`O=C(Nc1nc(CCc2cccc(Cl)c2)cs1)c1cccn1Cc1ccncc1` [Compound A179]: the IC50 in experiment [1] (setting [7]) worked out at 0.211 µM; in experiment [2] (setting [7]), 3.58 µM; in experiment [3] (setting [7]), 0.541 µM; in experiment [4] (setting [7]) it was 1.17 µM. Besides, the half-maximal effective concentration (EC50) in experiment [5] came out at 5.75 µM; in experiment [6], 10.6 µM.
For the molecule `CCc1nc(NC(=O)c2cccn2Cc2ccncc2Cl)sc1C` [Compound A66, 1-((3-chloropyridin-4-yl)methyl)-N-(4-ethyl-5-methylthiazol-2-yl)-1H-pyrrole-2-carboxamide], the IC50 in experiment [1] (setting [7]) was 1.84 µM; in experiment [2] (setting [7]) it was greater than 25 µM; in experiment [3] (setting [7]), 4.15 µM; in experiment [4] (setting [7]) it was 4.78 µM. In addition, the EC50 in experiment [5] and in experiment [6] was greater than 25 µM in each case.
Take `CC(C)(OCc1ccccn1)c1csc(NC(=O)c2cccn2Cc2ccncc2)n1` [Compound A257]: the IC50 in experiment [1] (setting [7]) turned out to be 1.88 µM; in experiment [2] (setting [7]), 24.8 µM; in experiment [3] (setting [7]) it was 4.01 µM; in experiment [4] (setting [7]) it was 3.63 µM. Moreover, the EC50 in experiment [5] and in experiment [6] was greater than 25 µM in each case.
In the case of `CC(C)c1cnc(NC(=O)c2cccn2Cc2ccncc2)s1` [Compound A55], the IC50 was 1.39 µM in experiment [1] (setting [7]), greater than 25 µM in experiment [2] (setting [7]), 3.16 µM in experiment [3] (setting [7]) and 3.99 µM in experiment [4] (setting [7]). Moreover, the concentration giving a half-maximal response (EC50) in experiment [5] and in experiment [6] was greater than 25 µM each time.
For `CC(C)OC(C)(C)c1csc(NC(=O)c2cccn2Cc2ccncc2F)n1` [Compound A25, 1-((3-fluoropyridin-4-yl)methyl)-N-(4-(2-isopropoxypropan-2-yl)thiazol-2-yl)-1H-pyrrole-2-carboxamide], the IC50 in experiment [1] (setting [7]) was 0.314 µM; in experiment [2] (setting [7]) it was 9.98 µM; in experiment [3] (setting [7]), 0.692 µM; in experiment [4] (setting [7]), 0.49 µM. For the same molecule, the EC50 in experiment [5] and in experiment [6] was greater than 25 µM each time.
Consider `O=C(Nc1nc(C2=CCN(c3ccccc3)CC2)cs1)c1cccn1Cc1ccncc1` [Compound A258], for which the IC50 in experiment [1] (setting [7]) was 0.701 µM; in experiment [2] (setting [7]), greater than 25 µM; in experiment [3] (setting [7]), 6.4 µM; in experiment [4] (setting [7]) it was 14.5 µM. Further, the EC50 is 23.8 µM in experiment [5] and greater than 25 µM in experiment [6].
For `CC(C)OC(C)(C)c1csc(NC(=O)c2cccn2C/C=C/c2ccncc2)n1` [Compound A221, N-(4-(2-isopropoxypropan-2-yl)thiazol-2-yl)-1-(3-(pyridin-4-yl)allyl)-1H-pyrrole-2-carboxamide], the IC50 in experiment [1] (setting [7]), in experiment [2] (setting [7]), in experiment [3] (setting [7]) and in experiment [4] (setting [7]) was greater than 25 µM in each case. Besides, the half-maximal effective concentration (EC50) in experiment [5] and in experiment [6] was greater than 25 µM throughout.
`CC(C)OC(C)(C)c1csc(NC(=O)c2sccc2-c2ccncc2)n1` [Compound A348]: the IC50 in experiment [1] (24 hr, doxycycline-induced) was greater than 25 µM; in experiment [2] (24 hr, doxycycline-induced), greater than 25 µM; in experiment [3] (24 hr, doxycycline-induced), greater than 25 µM; in experiment [4] (24 hr, doxycycline-induced) it was greater than 25 µM. Further, the results for the 50% effective concentration (EC50) in experiment [5] and in experiment [6] were 17 µM and 18.3 µM, respectively.
Turning to `COc1ccccc1/C=C/c1csc(NC(=O)c2cccn2Cc2ccncc2)n1` [Compound A158, N-(4-(2-methoxystyryl)thiazol-2-yl)-1-(pyridin-4-ylmethyl)-1H-pyrrole-2-carboxamide], the IC50 in experiment [1] (setting [7]) is 0.293 µM; in experiment [2] (setting [7]), 2.42 µM; in experiment [3] (setting [7]), 0.993 µM; in experiment [4] (setting [7]), 1.47 µM. For the same molecule, the concentration for a half-maximal effect (EC50) was 15.7 µM in experiment [5] and greater than 25 µM in experiment [6].
In the case of `CC(C)(C)c1csc(NC(=O)c2cccn2Cc2ccncc2)n1` [Compound A45, N-(4-(tert-butyl)thiazol-2-yl)-1-(pyridin-4-ylmethyl)-1H-pyrrole-2-carboxamide], the IC50 amounted to 0.965 µM in experiment [1] (setting [7]), 13.8 µM in experiment [2] (setting [7]), 1.65 µM in experiment [3] (setting [7]) and 0.869 µM in experiment [4] (setting [7]). For the same molecule, the concentration for a half-maximal effect (EC50) in experiment [5] and in experiment [6] was greater than 25 µM throughout.
For the molecule `CC(C)(OCc1ccccc1)c1csc(NC(=O)c2cccn2Cc2ccncc2)n1` [Compound A9, N-(4-(2-(benzyloxy)propan-2-yl)thiazol-2-yl)-1-(pyridin-4-ylmethyl)-1H-pyrrole-2-carboxamide], the IC50 was 0.104 µM in experiment [1] (setting [7]), 1.62 µM in experiment [2] (setting [7]), 0.202 µM in experiment [3] (setting [7]) and 0.197 µM in experiment [4] (setting [7]). Also, the figures for the EC50 in experiment [5] and in experiment [6] were 9.46 µM and greater than 25 µM, respectively.
Consider `COc1ccc([C@H]2C[C@H]2c2csc(NC(=O)c3cccn3Cc3ccncc3)n2)nc1` [Compound A312], for which the IC50 in experiment [1] (24 hr, doxycycline-induced) amounted to 0.197 µM; in experiment [2] (24 hr, doxycycline-induced) it was 4.13 µM; in experiment [3] (24 hr, doxycycline-induced), 0.646 µM; in experiment [4] (24 hr, doxycycline-induced) it was 1.14 µM. Further, the EC50 in experiment [5] and in experiment [6] was greater than 25 µM in each case.
Regarding `O=C(Nc1nc([C@@H]2CCCC[C@@H]2c2ccccc2)cs1)c1cccn1Cc1ccncc1` [Compound A298], the IC50 came out at 0.26 µM in experiment [1] (24 hr, doxycycline-induced); 1.67 µM in experiment [2] (24 hr, doxycycline-induced); 0.482 µM in experiment [3] (24 hr, doxycycline-induced); 0.45 µM in experiment [4] (24 hr, doxycycline-induced). The values for the EC50 in experiment [5] and in experiment [6] were 13.5 µM and greater than 25 µM, respectively.
Regarding `COCc1csc(NC(=O)c2cccn2Cc2ccncc2)n1` [Compound A81], the IC50 in experiment [1] (setting [7]) was 4.62 µM; in experiment [2] (setting [7]), greater than 25 µM; in experiment [3] (setting [7]), 23 µM; in experiment [4] (setting [7]) it was greater than 25 µM. Besides, the concentration giving a half-maximal response (EC50) in experiment [5] and in experiment [6] was greater than 25 µM in each case.

Values taken from patent US20220153732A1, “PROTEIN SECRETION INHIBITORS” (KEZAR LIFE SCIENCES, priority 2019, published 2022).
